Values belong to the molecule of their own block, whether it stands above or below them.
Key:
[1] = system: Ewing sarcoma cell line EW-8; assay: ES-8 viability screen (CellTiter-Glo); format: cell-based; conditions: for Fold Difference to Pip6: ratio of EC50 values; for EC50: viability, 72 h
Protocol: Cell viability was measured using the CellTiter-Glo (Promega, G7573) assay and read using an Envision (PerkinElmer) plate reader. Compound source plates (96-well) were prepared by solubilizing each drug in DMSO to a maximum concentration of 1-50 mM, then arraying samples in 10-point dose-response with 3-fold dilution. Positive and negative controls (staurosporine at 10 mM and DMSO, respectively) were added to the source plates. Drug was transferred from the source plate to the assay plate using a Biomek FX (Beckman Coulter) liquid handler equipped with a pin tool which transferred ˜100 nl into a final volume of 100 μl, resulting in ˜1000-fold dilution. At least two biological replicates (assay performed on different day with same drug plate and independent cell preparation) were obtained for each drug. To analyze the assay, the relative light unit signal in each well was first log 2 transformed, then normalized by subtracting the mean of the negative controls wells on each plate.
FIGS. 6A-6E. […] 0.1 μM ad-olaparib (chemical structure indicated in panel a) was added to the cells for 1 hour before undergoing a UV treatment for 5 minutes in cold PBS. Cells were lysed and sonicated in PBS (1% Triton X-100+1% SDS), clicked with TAMRA-azide and run out on SDS-PAGE. The gel was imaged for TAMRA and probed for PARP-1 (Bethyl Laboratories), and alpha-tubulin (X). FIGS. 6B, 6D) Quantification of western blot images. TAMRA or ADPr values are normalized to PARP-1 within each replicate and plotted as percentage compared to DMSO. Error bars indicate SEM (n=3-4). Statistical significance of off-rate calculated via multiple t-tests (p<0.05). […] Cells were subsequently treated with PARGi (10 μM) for 30 minutes, lysed using RIPA buffer, run out on SDS-PAGE, and probed for ADPr (Cell Signaling) and PARP-1 (Bethyl Laboratories). FIG. 6E) ES-8 cells were treated with indicated concentration of inhibitors for 72 hours before measuring cell viability using the CellTiter-Glo kit (Promega G7573). IC50 values were calculated using R statistical software.

[2] = system: pan-nuclear γH2AX in HEK 293T cells; assay: γH2AX immunofluorescence; format: cell-based, human; conditions: kinase inhibitor co-treated with AZ0108
Protocol: HEK 293T or HEK 293 PARP-1 KO cells were seeded onto poly-d-lysine treated glass coverslips and treated with indicated concentrations of inhibitors for 18 hours. Cells were then washed with 1×PBS and fixed using 4% Sucrose/4% Paraformaldehyde in PBS for 20 minutes. After three washes in 1×PBS, cells were permeabilized in 0.3% Triton X-100 in PBS for 5 minutes followed by an additional three washes in 1×PBS. Coverslips were blocked in 3% BSA/0.1% Triton X-100 in PBS for 1 hour and then placed in primary anti-rabbit phosphoH2Ax antibody (1:200, Cell Signaling) overnight at 4° C. The next morning, cells were washed three times in 1×PBS and treated with blocking solution, 3% BSA/0.1% Triton X-100 in PBS, for 30 minutes before being placed in secondary anti-rabbit Alexa Fluor 647 (1:1000 Jackson Immuno) for 1 hour at RT. After three subsequent 1×PBS washes, coverslips were mounted using ProLong Gold antifade reagent with DAPI (Invitrogen). All immunofluorescence images were taken on a Zeiss ApoTome2 on Axiolmager and analyzed using Zeiss software. Mean intensity of the Alexa Fluor 647 signal was measured after imposing DAPI masks over the nucleus of each cell. All cells within a 20× image, was analyzed (˜3000 cells/condition).
Cell are stained for DAPI and γH2AX. Scale bar indicates 50 μm. FIG. 2B) Quantification of panel a. […] Error bars represent SEM. […] Error bars represent SEM. […] Error bars represent SEM.

[3] = system: Ser345 phosphorylation of Chk1 in HEK 293 cells; assay: western blot analysis of phosphorylation of Chk1; conditions: co-treatment with AZ0108
[4] = system: HEK 293T cells; assay: cell proliferation (MTT) assay; format: cell-based, human; conditions: MTT, 72 h
Protocol: HEK 293T or HEK 293 PARP-1 KO cells were seeded in a 96 well plate at 1000-2000 cells per well. Following an overnight incubation, MTT reagent, 3-(4,5-dimethylthiazol-2-yl)-2,5-diphenyltetrazolium bromide, or a dosage curve of indicated inhibitor was added to each well in quadruplicate. Following a 3-hour incubation at 37° C., wells containing MTT reagent, were aspirated and lysed with 100 μl DMSO. These wells acting as a no growth control were collected, saved @ −20° C., and replaced with 100 μl water. The plate was placed back into the incubator for a total of 72 hours of inhibitor treatment prior to MTT reagent being added for a final time. Following a 3 hour incubation with the reagent, wells were aspirated, and 100 μl DMSO were added to each well, while the no growth control sample was added back to the plate. Absorbance was read on a SpectraMaxi3 plate reader (Molecular Devices). Percent growth was calculated for analysis. Statistical significance was assigned using individual t-tests between conditions for each inhibitor dosage.
Error bars represent SEM. […] Error bars represent SEM. […] Error bars represent SEM.

[5] = biological target: T1, PARP-1 (Homo sapiens, UniProt P09874); assay: in vitro fluorescence polarization DNA competition assay; conditions: 25 μM compound; PARP-1 40 nM; nicked dumbbell DNA probe 20 nM
T1 sequence (P09874 whole entry): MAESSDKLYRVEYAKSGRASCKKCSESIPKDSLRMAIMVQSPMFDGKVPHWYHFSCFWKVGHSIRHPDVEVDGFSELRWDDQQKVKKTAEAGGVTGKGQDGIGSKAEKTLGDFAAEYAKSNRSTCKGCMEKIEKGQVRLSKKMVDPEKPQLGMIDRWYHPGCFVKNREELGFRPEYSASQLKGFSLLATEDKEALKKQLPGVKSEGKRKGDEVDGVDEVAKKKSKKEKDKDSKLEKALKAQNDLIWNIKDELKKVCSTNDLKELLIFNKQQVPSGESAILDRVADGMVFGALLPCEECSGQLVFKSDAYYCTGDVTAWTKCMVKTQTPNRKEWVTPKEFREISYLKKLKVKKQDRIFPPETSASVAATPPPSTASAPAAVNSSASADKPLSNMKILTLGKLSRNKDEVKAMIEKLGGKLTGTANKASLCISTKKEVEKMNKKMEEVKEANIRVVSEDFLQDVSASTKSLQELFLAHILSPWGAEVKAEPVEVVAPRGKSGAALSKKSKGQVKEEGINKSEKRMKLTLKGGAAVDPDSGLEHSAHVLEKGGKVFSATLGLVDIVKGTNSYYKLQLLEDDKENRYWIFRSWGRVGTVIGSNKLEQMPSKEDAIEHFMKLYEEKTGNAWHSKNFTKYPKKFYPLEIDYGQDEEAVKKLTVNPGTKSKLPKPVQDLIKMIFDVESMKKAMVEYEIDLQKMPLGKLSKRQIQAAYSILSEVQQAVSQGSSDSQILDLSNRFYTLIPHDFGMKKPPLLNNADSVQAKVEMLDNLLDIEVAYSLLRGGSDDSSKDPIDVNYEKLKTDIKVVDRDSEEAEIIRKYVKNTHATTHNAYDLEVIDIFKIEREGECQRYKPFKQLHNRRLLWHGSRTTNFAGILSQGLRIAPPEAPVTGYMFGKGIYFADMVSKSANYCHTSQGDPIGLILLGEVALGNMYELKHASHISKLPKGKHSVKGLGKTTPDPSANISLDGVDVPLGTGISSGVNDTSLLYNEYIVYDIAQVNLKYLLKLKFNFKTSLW
Protocol: The full-length WT PARP-1 protein used in these assays was purified as described previously (30).
An unlabeled competitor was added and the decrease in fluorescence polarization was measured across time.

[6] = biological target: T1, PARP-1; assay: in vitro PARP-1 auto-PARylation assay (SRPK2 plate assay); format: biochemical; parameters: The full-length WT PARP-1 protein used in these assays; made in house; conditions: read-out: IC50 against PARP-1 catalytic activity (auto-PARylation)
Protocol: IC50 SRPK2 Plate Assays were performed as previously described (21). Log(inhibitor) versus response curves were fit using non-linear regression with variable slope. Mean IC50 values for each compound were derived from a minimum of three separate replicates.

[7] = system: HEK 293T cells; assay: analysis of cell cycle (DAPI, flow cytometry); conditions: DAPI intensity, 18 hours
Protocol: After the indicated treatments, cells were washed twice with 1× PBS, trypsinized off of the plate, and washed an additional 2 times with 1×PBS. Cells were then permeabilized using 70% cold ethanol while vortexing before incubating for 30 min at 4° C. Cells were then washed three times with 1×PBS and counted using a hemocytometer to create a final pellet of 1×10^6 cells in for each inhibitor condition. 500 μl of DAPI solution (1 μg/ml DAPI, 0.1% Triton X-100 in PBS) was added to each cell pellet and incubated on ice for 30 min before being analyzed by flow cytometry using a BD Canto II. All data was analyzed on FlowJo software, gating for 20,000 singlet events. Manual cell cycle gates were set onto the DMSO control data using Watson modeling as reference. These gates were applied to all treatment conditions to obtain quantitative analysis.
Error bars represent SEM. […] Caspase-Glo 3/7 reagent was added to each well and luminescence was read after 30 minutes. […] Error bars represent SEM. […] Cell cycle was analyzed by flow cytometry (20,000 singlet events) and cell cycle statistics were calculated in FlowJo software against DMSO Watson modeling (n=3). FIG. 3F) DNA synthesis was measured using EdU incorporation. […] EdU incorporation was labelled using TAMRA azide click-chemistry and imaged at 20×. Mean intensity of TAMRA signal within DAPI masks analyzed using Zen software (n>3900 cells over 2 replicates). Values are normalized to the average DMSO control within each replicate. Error bars represent SEM. Statistical significance calculated via one-way ANOVA with Tukey's multiple comparisons test (p<0.05).

EC50 [1]: 0.75 nM
SMILES: CCc1c2c(nc3ccc(O)cc13)-c1cc3c(c(=O)n1C2)COC(=O)[C@]3(O)CC [SN-38]
Fold Difference to Pip6 [1]: ~3

EC50 [1]: 59600 nM
SMILES: C[C@]1(c2nc3c(C(N)=O)cccc3[nH]2)CCCN1 [Veliparib]
Fold Difference to Pip6 [1]: 245827

SMILES: O=c1cc(N2CCOCC2)oc2c(-c3cccc4c3sc3ccccc34)cccc12 [NU7441]
increase of AZ0108-induced pan-nuclear γH2AX [2]: ~1.3 fold

EC50 [1]: 14.2 nM
SMILES: Cn1ncnc1[C@H]1c2n[nH]c(=O)c3cc(F)cc(c23)N[C@@H]1c1ccc(F)cc1 [Talazoparib]
Fold Difference to Pip6 [1]: 59

EC50 [1]: 5570 nM
SMILES: CNCc1ccc(-c2[nH]c3cc(F)cc4c3c2CCNC4=O)cc1 [Rucaparib]
Fold Difference to Pip6 [1]: 22998

SMILES: CS(=O)(=O)c1ccc(-c2cnc(N)c(C(=O)Nc3ccccc3)n2)cc1 [VE-821]
increase of AZ0108-induced pan-nuclear γH2AX [2]: ~1.3 fold
effect on AZ0108-induced Ser345 phosphorylation of Chk1 [3]: significantly inhibited

SMILES: O=c1cc(-c2cccc3c2Sc2ccccc2S3)oc(N2CCOCC2)c1 [KU-55933]
reduction of AZ0108-induced pan-nuclear γH2AX [2]: ~2 fold

SMILES: Oc1c2ccccc2c2c3c(cccc13)N=N2 [SP600125]
reduction of AZ0108-induced pan-nuclear γH2AX [2]: ~2 fold

SMILES: O=C(c1cc(Cc2n[nH]c(=O)c3ccccc23)ccc1F)N1CCn2c(nnc2C(F)(F)F)C1 [Pip3, 4-(4-Fluoro-3-(3-(trifluoromethyl)-5,6,7,8-tetrahydro-[1,2,4]triazolo[4,3-a]pyrazine-7-carbonyl)benzyl) phthalazin-1(2H)-one]
potency in inhibiting cell growth compared with AZ0108 [4]: substantially more potent than AZ0108

exchange of the PARP-1:labled DNA complex with an unlabeled DNA competitor [5]: very little impact
IC50 [6]: 3.9 nM
SMILES: O=C(c1cc(Cc2n[nH]c(=O)c3ccccc23)ccc1F)N1CCn2cnnc2C1 [Pip1, 4-(4-Fluoro-3-(5,6,7,8-tetrahydro-[1,2,4]triazolo[4,3-a]pyrazine-7-carbonyl)benzyl)phthalazin-1(2H)-one]
EC50 ([4]; Homo sapiens, HEK-293T, read-out: EC50 cell growth): ~6 µM

EC50 [1]: 1380 nM
SMILES: NC(=O)c1cccc2cn(-c3ccc([C@@H]4CCCNC4)cc3)nc12 [Niraparib]
Fold Difference to Pip6 [1]: 5693

SMILES: Cc1cn([C@H]2C[C@H](O)[C@@H](CO)O2)c(=O)[nH]c1=O [Thymidine]
G1 [7]: 2.79%
G2 [7]: 7.06%
S [7]: 76.3%

exchange of the PARP-1:labled DNA complex with an unlabeled DNA competitor [5]: very little impact
SMILES: Cc1nnc2n1CCN(C(=O)c1cc(Cc3n[nH]c(=O)c4ccccc34)ccc1F)C2 [Pip2, 4-(4-Fluoro-3-(3-methyl-5,6,7,8-tetrahydro-[1,2,4]triazolo[4,3-a]pyrazine-7-carbonyl)benzyl) phthalazin-1(2H)-one]

IC50 [6]: 17.5 nM
SMILES: CC(C)c1nnc2n1CCN(C(=O)c1cc(Cc3n[nH]c(=O)c4ccccc34)ccc1F)C2 [Pip4, 4-(4-Fluoro-3-(3-isopropyl-5,6,7,8-tetrahydro-[1,2,4]triazolo[4,3-a]pyrazine-7-carbonyl)benzyl) phthalazin-1(2H)-one]

SMILES: CC(F)(F)c1nnc2n1CCN(C(=O)c1cc(Cc3n[nH]c(=O)c4ccccc34)ccc1F)C2 [Pip5, 4-(4-Fluoro-3-(3-(1,1-difluoroethyl)-5,6,7,8-tetrahydro-[1,2,4]triazolo[4,3-a]pyrazine-7-carbonyl)benzyl)phthalazin-1(2H)-one]
potency in inhibiting cell growth compared with AZ0108 [4]: substantially more potent than AZ0108

Reference: patent US20240317762A1, “PHTHALAZINONE-BASED PARP-1 INHIBITORS” (Oregon Health & Science University, priority 2021, published 2024)
